Key:
[1] = system: human colon cancer Colo205; assay: Colon cancer model, Experiment C: Colo205 xenograft; type: in vivo, Crl:SHO-PrkdcscidHrhr mice; conditions: rhTRAIL 30 mg/kg i.v. 6 times every second day, 33 day
Procedure: (§1) Tumor size was measured using electronic calliper, tumor volume was calculated using the formula: (a^2×b)/2, where a=shorter diagonal of the tumor (mm) and b=longer diagonal of the tumor (mm). Inhibition of tumor growth was calculated using the formula:
(§2) TGI[%](Tumor growth inhibition)=(WT/WC)×100−100%
(§3) wherein WT is the average tumor volume in the treatment group, and WC is the average tumor volume in the control group.
On day 0 Crl:SHO-Prkdc^scidHr^hr mice were grafted subcutaneously (s.c.) in the right side with 5×10^6 of Colo205 cells suspended in 0.1 ml of HBSS buffer using syringe with a needle 0.5×25 mm (Bogmark). On the 13 day of the experiment mice were randomized to obtain the average size of tumors in the group of ˜115 mm^3 and assigned to treatment groups.
The treatment groups were administered with the preparations of fusion protein of the invention of Ex. 16^a (30 mg/kg), and rhTRAIL114-281 (30 mg/kg) as a comparison against formulation buffer (19 mM NaH2PO4, 81 mM Na2HPO4, 50 mM NaCl, 5 mM glutathione, 0.1 mM ZnCl2, 10% glycerol, pH 7.4) as a control. The preparations were administered intravenously (i.v) 6 times once daily every second day. On the 33 day of the experiment mice were sacrificed by disruption of spinal cord.

[2] = system: human colon cancer HCT116; assay: Colon cancer model, Experiment A1: HCT116 xenograft; type: in vivo, Crl:SHO-PrkdcscidHrhr mice; conditions: 65 mg/kg i.v. six times every second day, 24th day
Procedure: as §1, §2, §3
On day 0 Crl:SHO-Prkdc^scidHr^hr mice were grafted subcutaneously (s.c.) in the right flank region with 5×10^6 of HCT116 cells suspended in 0.1 ml of the 3:1 mixture HBSS buffer:Matrigel using syringe with a 0.5×25 mm needle (Bogmark). When tumors reached the size of 71-432 mm^3 (day 13), mice were randomized to obtain the average size of tumors in the group of ˜180 mm^3 and assigned to treatment groups. The treatment groups were administered with the preparations of fusion protein of the invention of Ex. 16^b (90 mg/kg) and rhTRAIL114-281 (65 mg/kg) as a comparison. The preparations were administered intravenously (i.v.) six times every second day. The control group received formulation buffer.
When an experimental group reached the average tumor size of −1000 mm^3, mice were sacrificed by cervical dislocation.

[3] = system: human colon cancer HCT116; assay: Colon cancer model, Experiment A: HCT116 xenograft; type: in vivo, Crl:SHO-PrkdcscidHrhr mice; conditions: 20 mg/kg i.v. 6 times every second day, 32 day
Procedure: as §1, §2, §3
On day 0 Crl:SHO-Prkdc^scidHr^hr mice were grafted subcutaneously (s.c.) in the right side with 5×10^6 of HCT116 cells suspended in 0.1 ml of HBSS buffer using syringe with a needle 0.5×25 mm (Bogmark). On the 18 day of the experiment mice were randomized to obtain the average size of tumors in the group of −400 mm^3 and assigned to treatment groups. The treatment groups were administered with the preparations of fusion protein of the invention of Ex. 11^a (35 mg/kg), and rhTRAIL114-281 (20 mg/kg) as a comparison against formulation buffer (5 mM NaH2PO4, 95 mM Na2HPO4, 200 mM NaCl, 5 mM glutathione, 0.1 mM ZnCl2, 10% glycerol, 80 mM saccharose, pH 8.0) as a control. The preparations were administered intravenously (i.v) 6 times once daily every second day. On the 32 day of the experiment mice were sacrificed by disruption of the spinal cord.

[4] = system: human pancreas cancer PANC-1; assay: Pancreas cancer model, Experiment A: PANC-1 xenograft; type: in vivo, Crl:SHO-PrkdcscidHrhr mice; conditions: 20 mg/kg i.v. 6 times every second day, 42 day
Procedure: as §1, §2, §3
On day 0 Crl:SHO-Prkdc^scidHr^hr mice were grafted subcutaneously (s.c.) in the right side with 5×10^6 of PANC-1 cells suspended in 0.1 ml of the mixture HBSS:Matrigel 3:1 using syringe with a needle 0.5×25 mm (Bogmark). On the 31 day of the experiment mice were randomized to obtain the average size of tumors in the group of ˜110 mm^3 and assigned to treatment groups. The treatment groups were administered with the preparations of fusion protein of the invention of Ex. 11^a (40 mg/kg), and rhTRAIL114-281 (20 mg/kg) as a comparison against formulation buffer (19 mM NaH2PO4, 81 mM Na2HPO4, 50 mM NaCl, 5 mM glutathione, 0.1 mM ZnCl2, 10% glycerol, pH 7.4) as a control. The preparations were administered intravenously (i.v) 6 times once daily every second day. On the 42 day of the experiment mice were sacrificed by disruption of the spinal cord.

human colon cancer SW620 = assay: Colon cancer model, Experiment B: SW620 xenograft; type: in vivo, Crl:SHO-PrkdcscidHrhr mice; conditions: 30 mg/kg i.v. 6 times every second day, 31 day
Procedure: as §1, §2, §3
On day 0 Crl:SHO-Prkdc^scidHr^hr mice were grafted subcutaneously (s.c.) in the right side with 5×10^6 of SW620 cells suspended in 0.1 ml of the mixture HBSS:Matrigel 3:1 using syringe with a needle 0.5×25 mm (Bogmark). On the 17 day of the experiment mice were randomized to obtain the average size of tumors in the group of ˜320 mm^3 and assigned to treatment groups. The treatment groups were administered with the preparation of fusion protein of the invention of Ex. 16^a (20 mg/kg) and rhTRAIL114-281 (30 mg/kg) as a comparison against formulation buffer (19 mM NaH2PO4, 81 mM Na2HPO4, 50 mM NaCl, 5 mM glutathione, 0.1 mM ZnCl2, 10% glycerol, pH 7.4) as a control. The preparations were administered intravenously (i.v) 6 times once daily every second day. On the 31 day of the experiment mice were sacrificed by disruption of the spinal cord.

human lung cancer A549 = assay: Lung cancer model, Experiment A: A549 xenograft; type: in vivo; conditions: A549, Cby.Cg-foxn1(nu)/J mice; 20 mg/kg i.v. 6 times every second day; 35 day
Procedure: as §1, §2, §3
On day 0 Cby.Cg-foxn1(nu)/J mice were grafted subcutaneously (s.c.) in the right side with 5×10^6 of A549 cells suspended in 0.1 ml of the mixture HBSS:Matrigel 4:1 using syringe with a needle 0.5×25 mm (Bogmark). On the 19 day of the experiment mice were randomized to obtain the average size of tumors in the group of ˜75 mm3 and assigned to treatment groups. The treatment groups were administered with the preparations of fusion protein of the invention of Ex. 11^a (15 mg/kg), and rhTRAIL114-281 (20 mg/kg) as a comparison and water for injections as a control. The preparations were administered intravenously (i.v) 6 times once daily every second day. On the 35 day of the experiment mice were sacrificed by disruption of the spinal cord.

Substance: rhTRAIL114-281: recombinant human soluble TRAIL, amino acids 114-281 of hTRAIL, used as comparative reference
- TGI (tumor growth inhibition) relative to the control [1]: 18.8%
- TGI (tumor growth inhibition) relative to the control [2]: 37.9%
- TGI (tumor growth inhibition) relative to the control [3]: 5.6%
- TGI (tumor growth inhibition) relative to the control [4]: 26%
- TGI (tumor growth inhibition) relative to the control (human colon cancer SW620): −9%
- TGI (tumor growth inhibition) relative to the control (human lung cancer A549): 0%

Reference: patent publication US20140377216A1, “ANTICANCER FUSION PROTEIN” (ADAMED SP. Z.O.O., priority 2011, published 2014)
